Measured values as given in patent US20060063932A1, “Aminoalkylpyrrolidine serotonin receptor ligands and compositions, their pharmaceutical uses, and methods for their synthesis” (priority 2000, published 2006).
Like-named read-outs stand apart in the source and are kept apart here.

Tests used:
[1] = target: T1, human 5-HT7B (h5-HT7b) receptors (Homo sapiens, UniProt P34969); assay: Competition radioligand binding, h5-HT7b ([3H]5-CT); conditions: membranes of HEK 293 cells, 2 hr 37° C., read-out: Ki (nM) 5-HT7
T1 construct: expressed in transfected cells

[2] = target: human D2S dopamine (hD2S-DA) receptors (Homo sapiens, UniProt P14416); assay: Competition radioligand binding, hD2s DA ([3H]Spiperone)
Method: (§1) Cell pellets were homogenized in approximately 50 mL of homogenization buffer (buffer A) containing: 50 mM Tris (pH 7.4), 2 mM EGTA, 0.32 M sucrose, 10 μM PMSF, 1 μg/mL leupeptin, 5 μg/mL Pepstatin A, and 5 μg/mL aprotinin using an UltraTurax homogenizer (Tekmar Company, Cincinnati, Ohio) at 80% maximum setting three times for 10 sec. Cell pellets were centrifuged at 4° C. at 1,500×g for 10 min in a Beckman GS-6R centrifuge. Pellets were resuspended in buffer A, homogenized and centrifuged as described above. Pooled supernatants were transferred to centrifuge bottles and centrifuged at 4° C. at 20,000×g for 30 min in a Beckman J2-HS centrifuge. Cell pellets were resuspended in buffer A and were centrifuged at 4° C. at 20,000×g for 30 min. Cell pellets were resuspended in buffer A and stored at −70° C. in aliquots of 2.5 mg/mL total membrane protein. Total membrane protein was assessed utilizing a BCA kit (Pierce; Rockford, Ill.).
(§2) Filters were washed three times with ice-cold phosphate-buffered saline (PBS) wash buffer containing 50 mM NaPO4 (pH 7.4), 0.9% NaCl, 2 mM MgCl2 and 0.02% NaN3. The filters were then counted using liquid scintillation in a Packard Topcount scintillation counter.
(§3) Data Analysis: Radioligand binding experiments were analyzed with Prism™ (GraphPad, San Diego, Calif.), a computer graphics and statistics program. IC50 values and Hill slopes for compounds were generated by nonlinear regression using Prism™.

[3] = target: T2, human 5-HT6 (h5-HT6) receptors (Homo sapiens, UniProt P50406); assay: Competition radioligand binding, h5-HT6 ([3H]LSD); conditions: membranes of HEK-293 cells, 1 hr RT
T2 construct: purchased Receptor Biology, Inc. (Beltsville, Md.); host or cells: HEK-293 cells

[4] = target: human 5-HT2a receptors (Homo sapiens, UniProt P28223); assay: Competition radioligand binding, h5-HT2a ([3H]Ketanserin)
Method: The 5-HT receptor binding properties of the compounds are identified by competitive radioligand binding assays wherein membranes prepared from transfected cells expressing the 5-HT receptor subtype of interest. “Binding constants” refers herein to Ki values measured by inhibition of the binding of radiolabelled ligands that are selective for the 5-HT receptor type being studied.
as §1, §2, §3

[5] = target: T3, human 5-HT1a receptors (Homo sapiens, UniProt P08908); assay: Competition radioligand binding, h5-HT1a ([3H]5-CT); conditions: membranes of CHO K1 cells, 1 hr RT
T3 construct: expressed in transfected cells; host or cells: CHO K1 cells
T3 sequence (P08908 1-422): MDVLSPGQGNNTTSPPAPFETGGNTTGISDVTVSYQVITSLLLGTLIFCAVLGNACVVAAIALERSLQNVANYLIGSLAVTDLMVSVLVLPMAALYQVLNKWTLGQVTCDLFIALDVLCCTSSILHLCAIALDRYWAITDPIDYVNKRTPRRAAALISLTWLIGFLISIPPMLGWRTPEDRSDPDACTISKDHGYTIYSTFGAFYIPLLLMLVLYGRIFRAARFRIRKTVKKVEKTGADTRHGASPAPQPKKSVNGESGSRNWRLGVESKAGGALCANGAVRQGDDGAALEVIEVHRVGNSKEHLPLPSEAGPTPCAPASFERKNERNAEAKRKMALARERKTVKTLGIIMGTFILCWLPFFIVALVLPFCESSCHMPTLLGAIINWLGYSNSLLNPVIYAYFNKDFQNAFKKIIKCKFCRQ

[6] = read-out: Ki (nM) D2, membranes of A9 L cells, [3H]Spiperone, 2 hr RT
[7] = read-out: Ki (nM) 5-HT2A, membranes of CHO K1 cells, [3H]Ketanserin, 1 hr 37° C.

T2 sequence (P50406 whole entry): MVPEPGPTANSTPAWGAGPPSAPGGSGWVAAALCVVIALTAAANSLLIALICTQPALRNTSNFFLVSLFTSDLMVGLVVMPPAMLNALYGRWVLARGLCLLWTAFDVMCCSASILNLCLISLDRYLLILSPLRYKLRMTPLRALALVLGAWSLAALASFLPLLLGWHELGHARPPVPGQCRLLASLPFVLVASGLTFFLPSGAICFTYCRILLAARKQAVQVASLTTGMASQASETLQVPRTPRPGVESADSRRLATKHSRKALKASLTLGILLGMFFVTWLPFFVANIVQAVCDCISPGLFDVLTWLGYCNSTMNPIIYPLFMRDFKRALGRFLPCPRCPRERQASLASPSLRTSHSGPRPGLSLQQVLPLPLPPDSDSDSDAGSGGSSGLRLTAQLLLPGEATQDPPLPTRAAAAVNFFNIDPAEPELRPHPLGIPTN
human D2S dopamine (hD2S-DA) receptors, sequence (P14416 1-414 isoform P14416-2): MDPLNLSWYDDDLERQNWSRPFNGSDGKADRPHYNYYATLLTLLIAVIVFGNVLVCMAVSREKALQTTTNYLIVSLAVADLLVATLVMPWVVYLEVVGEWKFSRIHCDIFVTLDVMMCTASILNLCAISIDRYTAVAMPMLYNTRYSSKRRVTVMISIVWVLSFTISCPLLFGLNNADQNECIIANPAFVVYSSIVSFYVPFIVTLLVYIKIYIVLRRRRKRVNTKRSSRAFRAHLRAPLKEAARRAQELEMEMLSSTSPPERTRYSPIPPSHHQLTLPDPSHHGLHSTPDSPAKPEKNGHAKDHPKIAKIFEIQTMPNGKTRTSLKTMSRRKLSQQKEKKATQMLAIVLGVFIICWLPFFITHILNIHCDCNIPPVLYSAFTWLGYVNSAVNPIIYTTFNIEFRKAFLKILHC
T1 sequence (P34969 1-432 limits assumed): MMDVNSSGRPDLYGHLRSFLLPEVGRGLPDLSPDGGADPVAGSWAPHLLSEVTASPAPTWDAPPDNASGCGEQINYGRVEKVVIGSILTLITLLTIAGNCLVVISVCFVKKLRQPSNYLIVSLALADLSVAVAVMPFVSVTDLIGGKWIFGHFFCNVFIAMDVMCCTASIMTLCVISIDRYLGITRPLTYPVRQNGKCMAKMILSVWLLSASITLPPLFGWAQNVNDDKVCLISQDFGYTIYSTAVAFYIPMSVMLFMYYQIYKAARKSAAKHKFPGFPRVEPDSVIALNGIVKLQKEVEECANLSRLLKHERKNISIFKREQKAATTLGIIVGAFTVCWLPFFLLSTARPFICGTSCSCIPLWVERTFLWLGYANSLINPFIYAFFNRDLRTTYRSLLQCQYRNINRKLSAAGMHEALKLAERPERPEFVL
human 5-HT2a receptors, sequence (P28223 whole entry): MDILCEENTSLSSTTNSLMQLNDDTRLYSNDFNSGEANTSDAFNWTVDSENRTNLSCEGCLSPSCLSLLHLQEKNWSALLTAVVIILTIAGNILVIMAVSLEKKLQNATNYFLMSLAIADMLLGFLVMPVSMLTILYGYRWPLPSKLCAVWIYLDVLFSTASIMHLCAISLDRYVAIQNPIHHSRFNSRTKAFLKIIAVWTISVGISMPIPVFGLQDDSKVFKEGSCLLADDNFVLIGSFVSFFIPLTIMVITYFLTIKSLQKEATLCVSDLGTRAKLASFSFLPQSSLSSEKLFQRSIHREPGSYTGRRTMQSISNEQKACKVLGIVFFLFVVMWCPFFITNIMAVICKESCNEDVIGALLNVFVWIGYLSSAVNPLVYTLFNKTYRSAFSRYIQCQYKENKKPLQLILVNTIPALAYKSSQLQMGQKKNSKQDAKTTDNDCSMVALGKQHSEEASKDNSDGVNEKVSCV

Ki [1] [nM]	Ki [2] [nM]	Ki [3] [nM]	Ki [4] [nM]	Ki [5] [nM]	Molecule	Ki [2, 6] [nM]	Ki [4, 7] [nM]
200	–	–	–	–	CN1CCC[C@H]1CCN(Cc1ccc(Cl)cc1)Cc1ccc(O)c([N+](=O)[O-])c1 [Example 51]	–	–
8.6	1750	315	61	825	CN1CCC[C@H]1CCN(Cc1cccc(O)c1)Cc1ccc2ccccc2c1 [Example 34]	–	–
80	200	53	29	1780	Cc1ccc(CN(CC[C@H]2CCCN2C)Cc2ccc(C)cc2)cc1 [Example 6]	–	–
170	–	–	–	–	CN1CCC[C@H]1CN(Cc1ccccc1)Cc1ccccc1 [Example 55, (S)-Di-(benzyl)-2-aminomethyl-N-methylpyrrolidine]	–	–
9.9	110	41	20	–	Cc1ccc(CN(CCC2CCCN2C)Cc2ccc(C)cc2)cc1 (racemic) [Example 4]	–	–
6.6	1480	83	39	> 4000	COc1cccc(CN(CC[C@@H]2CCCN2C)Cc2ccc(Cl)cc2)c1 [Example 41]	–	–
180	–	–	–	–	CN1CCC[C@H]1CCN(Cc1ccc(Cl)cc1)CC1CC=CCC1 (stereo partly shown) [Example 43]	–	–
80	1110	350	42	3850	CC(C)c1ccc(CN(CC[C@@H]2CCCN2C)Cc2ccc(Cl)cc2)cc1 [Example 46]	–	–
200	–	–	–	–	CN1CCC[C@H]1CCN(CCc1ccccc1)Cc1ccc(Cl)cc1 [Example 38]	–	–
56	780	35	51	> 4000	COc1cccc(CN(CCC2CCCN2C)Cc2ccccc2)c1 (stereo not shown) [Example 33]	–	–
0.91	420	49	85	3920	CN1CCC[C@H]1CCN(Cc1ccc(Cl)cc1)Cc1ccc(O)cc1Cl [Example 39]	–	–
18	400	20	–	–	CN1CCCC1CCN(Cc1ccccc1)Cc1ccc(F)cc1 (stereo not shown) [Example 26]	–	–
23	1010	33	69	> 4000	CN1CCCC1CCN(Cc1ccccc1)Cc1cccc(O)c1 (stereo not shown) [Example 29]	–	–
150	–	–	–	–	CSc1ccc(CN(CCC2CCCN2C)Cc2ccccc2)cc1 (stereo not shown) [Example 27]	–	–
8.3	220	39	44	> 4000	Cc1ccc(CN(CC[C@@H]2CCCN2C)Cc2ccccc2)cc1 [Example 22]	–	–
2.1	221	63	17	2850	Cc1ccc(CN(CC[C@@H]2CCCN2C)Cc2ccc(C)cc2)cc1 [Example 7]	–	–

Ki [1] [nM]	Ki [2] [nM]	Ki [3] [nM]	Ki [4] [nM]	Ki [5] [nM]	Molecule	Ki [2, 6] [nM]	Ki [4, 7] [nM]
28	160	47	16	> 4000	CN1CCCC1CCN(Cc1ccccc1)Cc1c(Cl)cccc1Cl (stereo not shown) [Example 23]	–	–
6.5	1110	132	23	> 4000	CSc1ccc(CN(CC[C@@H]2CCCN2C)Cc2ccc(Cl)cc2)cc1 [Example 40]	–	–
20	660	53	60	> 4000	Cc1cccc(CN(CCC2CCCN2C)Cc2ccccc2)c1 (stereo not shown) [Example 30]	–	–
36	850	71	11	–	CC(C)c1ccc(CN(CCC2CCCN2C)Cc2ccccc2)cc1 (stereo not shown) [Example 32]	–	–
5100	–	–	–	–	CN1CCC[C@H]1CCN(Cc1cccc(C(N)=O)c1)Cc1cccc(C(N)=O)c1 [Example 9]	–	–
45	570	99	87	> 4000	CN1CCCC1CCN(Cc1ccccc1)Cc1cccc2ccccc12 (stereo not shown) [Example 25]	–	–
31	410	72	20	> 4000	Cc1ccc(C)c(CN(CCC2CCCN2C)Cc2ccccc2)c1 (stereo not shown) [Example 24]	–	–
24	360	74	–	–	CN1CCCC1CCN(Cc1ccccc1)Cc1ccccc1 (racemic) [Example 12]	–	–
21	> 2500	54	88	> 4000	Cc1cc(CN(CC[C@@H]2CCCN2C)Cc2ccc(Cl)cc2)oc1C [Example 42]	–	–
4.7	–	42	39	540	CN1CCCC1CCN(Cc1ccc(Cl)cc1)Cc1ccc(Cl)cc1 (racemic) [Example 5]	–	–
12	250	38	27	> 4000	CN1CCC[C@H]1CCN(Cc1ccc(Cl)cc1)Cc1ccc2c(c1)Cc1ccccc1-2 [Example 45]	–	–
1000	–	–	–	–	CN1CCC[C@@H]1CCN(Cc1cccc(O)c1)Cc1cccc(O)c1 [Example 10]	–	–
260	–	–	–	–	CN1CCC[C@H]1CCN(Cc1ccc(Cl)cc1)Cc1ccccc1Cl [Example 44]	–	–
161	–	–	–	–	C[C@H](CN(CC[C@@H]1CCCN1C)Cc1ccc(Cl)cc1)c1ccccc1 [Example 53]	–	–
19	270	91	73	> 4000	CCc1ccc(CN(CCC2CCCN2C)Cc2ccccc2)cc1 (stereo not shown) [Example 28]	–	–
27	1110	310	76	> 4000	Cc1c(CN(CC[C@@H]2CCCN2C)Cc2ccc(Cl)cc2)sc2ccccc12 [Example 52]	–	–

Molecule	Ki [1] [nM]	Ki [2] [nM]	Ki [3] [nM]	Ki [4] [nM]	Ki [5] [nM]	Ki [2, 6] [nM]	Ki [4, 7] [nM]
CN1CCC[C@H]1CCN(Cc1ccc(C(C)(C)C)cc1)Cc1cccc(O)c1 [Example 37]	66	2300	375	160	> 4000	–	–
COc1ccc(CN(CC[C@@H]2CCCN2C)Cc2cccc(O)c2)cc1 [Example 36]	49	2530	1580	200	> 4000	–	–
COc1cc(CN(CC[C@@H]2CCCN2C)Cc2ccc(Cl)cc2)ccc1O [Example 50]	3.2	> 2500	280	180	> 4000	–	–
CN1CCC[C@H]1CCN(Cc1ccc(O)cc1)Cc1cccc(O)c1 [Example 20]	8.8	> 2500	880	540	> 4000	–	–
CN1CCCC1CCN(CCc1ccccc1)CCc1ccccc1 (racemic) [Example 8]	3200	–	–	–	–	–	–
CN1CCCC1CCN(Cc1ccccc1)Cc1ccc(C(C)(C)C)cc1 (stereo not shown) [Example 31]	66	1210	45	130	–	–	–
Cc1cc(CN(CC[C@@H]2CCCN2C)Cc2cccc(O)c2)cc(C)c1O [Example 35]	17	> 2500	2710	3470	> 4000	–	–
CN1CCC[C@H]1CCN(Cc1cccc(O)c1)Cc1cccc(O)c1 [Example 2, (S)-Di-(3-hydroxybenzyl)-2-aminoethyl-N-methylpyrrolidine]	9.7	–	640	–	3500	> 2500	500
CN1CCC[C@H]1CCN(Cc1ccc(Cl)cc1)Cc1ccc(O)c(Cl)c1 [Example 47]	2.7	1010	110	180	> 4000	–	–
CN1CCCC1CCN(Cc1cccc(O)c1)Cc1cccc(O)c1 (racemic) [Example 3]	49	> 2500	2640	2000	–	–	–
Cc1cc(CN(CC[C@@H]2CCCN2C)Cc2ccc(Cl)cc2)cc(C)c1O [Example 48]	4.2	> 2500	71	233	3070	–	–
(S)-(3-Hydroxybenzyl)(4-chlorobenzyl)-2-aminoethyl-N-methylpyrrolidine [Example 19]	2.7	–	210	–	> 4000	1580	74
CN1CCC[C@H]1CCN(Cc1ccc(O)cc1)Cc1ccc(Cl)cc1 [Example 49]	1.9	1310	177	148	> 4000	–	–
CCN1CCC[C@H]1CCN(Cc1ccc(C)cc1)Cc1ccc(C)cc1 [Example 54, (S)-Di-(4-methylbenzyl)aminoethyl-N-ethylpyrrolidine]	63	–	300	–	610	380	56
